For 19 compounds, IC50 and melting point results are on record in US20090069304A1, “MMP-13 SELECTIVE INHIBITOR” (SHIONOGI & CO., LTD., priority 2006, published 2009).

One data set addresses T1, MMP-2 (Homo sapiens, UniProt P08253).
T1 construct: purchased Calbiochem (EMD/MERCK Biosciences)
T1 sequence (P08253 110-660): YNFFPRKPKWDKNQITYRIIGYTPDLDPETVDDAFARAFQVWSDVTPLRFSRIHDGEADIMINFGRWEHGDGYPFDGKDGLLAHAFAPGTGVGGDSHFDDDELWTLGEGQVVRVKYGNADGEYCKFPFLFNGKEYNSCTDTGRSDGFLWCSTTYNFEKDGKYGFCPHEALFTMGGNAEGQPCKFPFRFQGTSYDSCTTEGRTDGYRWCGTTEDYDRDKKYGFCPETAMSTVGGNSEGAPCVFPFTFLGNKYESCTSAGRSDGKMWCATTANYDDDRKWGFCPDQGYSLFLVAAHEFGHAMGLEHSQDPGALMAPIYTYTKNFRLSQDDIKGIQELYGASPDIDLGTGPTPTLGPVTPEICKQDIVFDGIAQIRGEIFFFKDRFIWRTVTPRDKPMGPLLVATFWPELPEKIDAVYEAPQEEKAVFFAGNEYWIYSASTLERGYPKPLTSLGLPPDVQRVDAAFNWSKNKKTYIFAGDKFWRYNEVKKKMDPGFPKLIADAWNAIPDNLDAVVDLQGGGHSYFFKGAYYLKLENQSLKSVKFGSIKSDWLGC
Kind of data set: Enzyme inhibiting activity of MMPs (fluorogenic peptide substrate), MMP-2. Format: biochemical. The conditions noted are these: human MMP-2; substrate MOCAc-Pro-Leu-Gly-Leu-A2Pr(DNP)-Ala-Arg-NH2. On the procedure:
(§1) Various human MMPs (MMP-2, MMP-9 and MMP-13) were purchased from Calbiochem (EMD/MERCK Biosciences).
(§2) The enzyme activity of MMPs was measured according to the method described in C. Graham Knight, Frances Willenbrock and Gillian Murphy: A novel coumarin-labelled peptide for sensitive continuous assays of the matrix metalloproteinases: FEBS LETT., 296, (1992), 263-266. As a substrate, MOCAc-Pro-Leu-Gly-Leu-A2Pr(DNP)-Ala-Arg-NH2 (Peptide Institute, Inc. Osaka, Japan) was used, and the following four assays are performed per compound (inhibitor) for measuring the inhibiting activity.
(§3) (A) Substrate (synthetic substrate), enzyme (MMPs), inhibitor (B) Substrate (synthetic substrate), inhibitor (C) Substrate (synthetic substrate), enzyme (MMPs) (D) Substrate (synthetic substrate) In each assay, the fluorescent intensity was measured, and inhibition (%) was calculated by the following equation.
(§4) Inhibition(%)=[I−(A−B)/(C−D)]×100
(§5) IC50 indicates a concentration at which inhibition (%) is 50%.

Another data set addresses T2, MMP-9 (Homo sapiens, UniProt P14780).
T2 construct: purchased Calbiochem (EMD/MERCK Biosciences)
Kind of data set: Enzyme inhibiting activity of MMPs (fluorogenic peptide substrate), MMP-9. Format: biochemical. The conditions noted are these: human MMP-9; substrate MOCAc-Pro-Leu-Gly-Leu-A2Pr(DNP)-Ala-Arg-NH2. How it is done:
as §1, §2, §3, §4, §5

Another data set addresses T3, MMP-13 (Homo sapiens, UniProt P45452).
T3 construct: purchased Calbiochem (EMD/MERCK Biosciences)
Kind of data set: Enzyme inhibiting activity of MMPs (fluorogenic peptide substrate), MMP-13. Format: biochemical. The conditions noted are these: human MMP-13, proenzyme activated with APMA; substrate MOCAc-Pro-Leu-Gly-Leu-A2Pr(DNP)-Ala-Arg-NH2. On the procedure: as §1
Since the purchased MMP-13 was Proenzyme, the activated one was used, which was incubated at 37° C. for 2 hours after the successive addition of an assay buffer (containing 50 mM Tris-HCl (pH7.6), 0.3 M NaCl, 10 mM CaCl2, 0.005% Brij35) and APMA (final concentration 1 mM) to the enzyme solution.
as §2, §3, §4, §5

T2 sequence (P14780 94-707): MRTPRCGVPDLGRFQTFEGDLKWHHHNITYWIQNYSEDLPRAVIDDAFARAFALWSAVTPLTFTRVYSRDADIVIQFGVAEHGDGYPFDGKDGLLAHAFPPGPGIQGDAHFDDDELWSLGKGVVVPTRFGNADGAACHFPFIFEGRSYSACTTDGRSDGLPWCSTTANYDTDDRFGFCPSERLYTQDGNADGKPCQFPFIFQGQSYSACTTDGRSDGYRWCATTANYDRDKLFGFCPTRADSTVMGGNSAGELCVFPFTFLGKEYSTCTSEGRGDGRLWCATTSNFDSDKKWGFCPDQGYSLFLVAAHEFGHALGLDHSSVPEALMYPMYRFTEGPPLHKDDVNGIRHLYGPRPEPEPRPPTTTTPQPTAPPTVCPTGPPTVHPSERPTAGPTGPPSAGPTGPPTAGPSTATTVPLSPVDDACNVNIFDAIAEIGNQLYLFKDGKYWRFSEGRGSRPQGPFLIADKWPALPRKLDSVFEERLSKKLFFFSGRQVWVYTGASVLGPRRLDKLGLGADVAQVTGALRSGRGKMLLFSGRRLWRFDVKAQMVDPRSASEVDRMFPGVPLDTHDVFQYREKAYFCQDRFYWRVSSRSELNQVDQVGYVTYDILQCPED

`COc1ccc2cc(COc3ccc(N4CCN(S(=O)(=O)N[C@@H](C)C(=O)O)CC4)cc3)ccc2c1` [Compound I-15, (S)-2-{4-[4-(6-methoxy-naphthalen-2-ylmethoxy)-phenyl]-piperazine-1-sulfonylamino}-propionic acid]: the IC50 at MMP-2 is 1 to 10 µM; at MMP-9, > 10 µM; against MMP-13, 0.126 µM.

In turn, `C[C@@H](NS(=O)(=O)N1CCN(c2ccc(OCc3ccc4ccccc4c3)cc2)CC1)C(=O)O` [Compound I-2, (R)-2-{4-[4-(naphthalen-2-ylmethoxy)-phenyl]-piperazine-1-sulfonylamino}-propionic acid] registered a melting point of 167 to 171 °C.

As for `COc1ccc2cc(/C=C/c3ccc(N4CCN(S(=O)(=O)N[C@@H](C)C(=O)O)CC4)cc3)ccc2c1` [Compound I-21, (S)-2-(4-{4-[(E)-2-(6-methoxy-naphthalen-2-yl)-vinyl]-phenyl}-piperazine-1-sulfonylamino}-propionic acid], the IC50 on MMP-2 is > 10 µM; at MMP-9, > 10 µM; at MMP-13, 0.176 µM.

On to `CCC[C@H](NS(=O)(=O)N1CCC(c2ccc(C=Cc3ccc4cc(OC)ccc4c3)cc2)CC1)C(=O)O` [Compound I-24, (S)-2-(4-{4-[(A)-2-(6-methoxy-naphthalen-2-yl)-vinyl]-phenyl)-piperidine-1-sulfonylamino}-pentanoic acid], for which the half-inhibitory concentration (IC50) against MMP-2 was > 10 µM; against MMP-9, > 10 µM; against MMP-13, 0.138 µM.

On to `CON=Cc1ccc2cc(C#Cc3ccc(N4CCN(S(=O)(=O)N[C@H](C)C(=O)O)CC4)cc3)ccc2c1` [Compound I-66, (R)-2-(4-{4-[6-(methoxyimino-methyl)-naphthalen-2-ylethynyl]-phenyl)-piperazine-1-sulfonylamino]-propionic acid], for which the IC50 on MMP-2 is > 10 µM; against MMP-9 it was > 10 µM; at MMP-13, 0.0396 µM.

Turning to `C[C@@H](NS(=O)(=O)N1CCN(c2ccc(C#Cc3ccc4cc(OCC5CC5)ccc4c3)cc2)CC1)C(=O)O` [Compound I-32, (R)-2-{4-[4-(6-cyclopropylmethoxy-naphthalen-2-ylethynyl)-phenyl]-piperazine-1-sulfonylamino)-propionic acid], the IC50 was 1 to 10 µM on MMP-2, > 10 µM against MMP-9 and 0.0685 µM at MMP-13.

Turning to `COc1ccc2cc(C#Cc3ccc(N4CCN(S(=O)(=O)N[C@H](C(=O)O)C(C)C)CC4)cc3)ccc2c1` [Compound I-5, (S)-2-{4-[4-(6-methoxy-naphthalen-2-ylethynyl)-phenyl]-piperazine-1-sulfonylamino}-3-methyl-butanoic acid], the IC50 is > 10 µM on MMP-2, > 10 µM at MMP-9 and 0.11 µM at MMP-13.

`CCC[C@H](NS(=O)(=O)N1CCN(c2ccc(C#Cc3ccc4cc(OCC)ccc4c3)cc2)CC1)C(=O)O` [Compound I-28, (S)-2-{4-[4-(6-ethoxy-naphthalen-2-ylethynyl)-phenyl]-piperazine-1-sulfonylamino)-pentanoic acid]: the IC50 on MMP-2 is > 10 µM; on MMP-9, > 10 µM; against MMP-13, 0.0771 µM.

For `COc1ccc2cc(CNc3ccc(N4CCN(S(=O)(=O)N[C@H](C)C(=O)O)CC4)cc3)ccc2c1` [Compound I-45, (R)-2-(4-{4-[4-(6-methoxy-naphthalen-2-ylmethyl)-amino]-phenyl}-piperazine-1-sulfonylamino)-propionic acid], the IC50 against MMP-2 was 1 to 10 µM; on MMP-9 it was > 10 µM; at MMP-13 it was 0.186 µM.

As to `CCC[C@H](NS(=O)(=O)N1CCN(c2ccc(/C=C/c3ccc4ccccc4c3)cc2)CC1)C(=O)O` [Compound I-13], the IC50 at MMP-2 is > 10 µM; at MMP-9 it was > 10 µM; on MMP-13 it was 0.0443 µM.

For the compound `CCC[C@H](NS(=O)(=O)N1CCN(c2ccc(/C=C/c3ccc4cc(OCOC)ccc4c3)cc2)CC1)C(=O)O` [Compound I-49, (S)-2-(4-{4-[(E)-2-(6-methoxymethoxy-naphthalen-2-yl)-vinyl]-phenyl}-piperazine-1-sulfonylamino)-pentanoic acid], the results for the IC50 against MMP-2, against MMP-9 and against MMP-13 were 1 to 10 µM, > 10 µM and 0.0965 µM, respectively.

`COc1ccc2cc(C#Cc3ccc(C4CCN(S(=O)(=O)N[C@H](C)C(=O)O)CC4)cc3)ccc2c1` [Compound I-11, (R)-2-{4-[4-(6-methoxy-naphthalen-2-ylethynyl)-phenyl]-piperidine-1-sulfonylamino}-propionic acid]: the IC50 was > 10 µM on MMP-2, > 10 µM against MMP-9 and 0.0549 µM against MMP-13.

For the compound `CCC[C@H](NS(=O)(=O)N1CCC(c2ccc(CCc3ccc4cc(OC)ccc4c3)cc2)CC1)C(=O)O` [Compound I-20, (S)-2-(4-{4-[2-(6-methoxy-naphthalen-2-yl)-ethyl]-phenyl}-piperidine-1-sulfonylamino]-pentanoic acid], the IC50 on MMP-2 is 1 to 10 µM; at MMP-9, > 10 µM; on MMP-13, 0.0945 µM.

Turning to `CCOc1ccc2cc(C#Cc3ccc(N4CCN(S(=O)(=O)N[C@H](C)C(=O)O)CC4)cc3)ccc2c1` [Compound I-27, (R)-2-{4-[4-(6-ethoxy-naphthalen-2-ylethynyl)-phenyl]-piperazine-1-sulfonylamino)-propionic acid], the IC50 against MMP-2 was > 10 µM; against MMP-9, > 10 µM; at MMP-13, 0.0423 µM.

For `COc1ccc2cc(C#Cc3ccc(N4CCN(S(=O)(=O)N[C@H](C)C(=O)O)C[C@@H]4C)cc3)ccc2c1` [Compound I-53], the IC50 is 1 to 10 µM on MMP-2, > 10 µM against MMP-9 and 0.107 µM at MMP-13.

Take `COc1ccc2cc(COc3ccc(C4CCN(S(=O)(=O)NC(C)C(=O)O)CC4)cc3)ccc2c1` (centres unmarked) [Compound I-19]: the IC50 is > 10 µM against MMP-2, > 10 µM against MMP-9 and 0.142 µM against MMP-13.

As for `CCC[C@H](NS(=O)(=O)N1CCN(c2ccc(C#Cc3ccc4cc(OC)ccc4c3)cc2)CC1)C(=O)O` [Compound I-1, (S)-2-{4-[4-(6-methoxy-naphthalen-2-ylethynyl)-phenyl]-piperazine-1-sulfonylamino}-pentanoic acid], the melting point is 187 to 190 °C (dec.). In addition, the IC50 on MMP-2 is > 10 µM. Further, the IC50 at MMP-9 was > 10 µM. Further, the IC50 against MMP-13 amounted to 0.121 µM.

Turning to `CCC[C@H](NS(=O)(=O)N1CCC(c2ccc(/C=C/c3ccc4ccccc4c3)cc2)CC1)C(=O)O` [Compound I-25], the IC50 against MMP-2 was > 10 µM; against MMP-9 it was > 10 µM; at MMP-13, 0.145 µM.

Consider `COc1ccc2cc(C#Cc3ccc(N4CCN(S(=O)(=O)N[C@H](C)C(=O)O)C(C)C4)cc3)ccc2c1` (some centres unmarked) [Compound I-47], for which the IC50 against MMP-2 is > 10 µM; at MMP-9 it was > 10 µM; against MMP-13, 0.131 µM.
